Test results from PubChem BioAssay AID1963866 (Molecular Pharmacology Branch, DTP, NCI, 2024).

Test system: PDC KRAS tumor spheroids with HUVEC/MSC, viability
Test: Anticancer human tumor 349418-098-R-PDC patient-derived lung adenocarcinoma cell line growth inhibition [KRAS2]
Details: for IC50: curve of first compound; for viability, T/C: stronger effect = lower value
Summary of the method: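 Combination screen of spheroid viability in tumor-cell co-cultures with endothelial (HUVEC) and mesenchymal stem cell stroma. Each agent was tested in half-log dilutions, topping at clinical Cmax or at 10 microM without a known Cmax.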

[1] = second compound 0.1 µM, first compound 0.0316 µM
[2] = second compound 0.1 µM, first compound 0.1 µM
[3] = second compound 0.1 µM, first compound 0.316 µM
[4] = second compound 0.1 µM, first compound 1 µM
[5] = second compound 0.1 µM, first compound 3.16 µM
[6] = second compound 0.1 µM, first compound 10 µM
[7] = second compound 0.316 µM, first compound 0.0316 µM
[8] = second compound 0.316 µM, first compound 0.1 µM
[9] = second compound 0.316 µM, first compound 0.316 µM
[10] = second compound 0.316 µM, first compound 1 µM
[11] = second compound 0.316 µM, first compound 3.16 µM
[12] = second compound 0.316 µM, first compound 10 µM
[13] = second compound 1 µM, first compound 0.0316 µM
[14] = second compound 1 µM, first compound 0.1 µM
[15] = second compound 1 µM, first compound 0.316 µM
[16] = second compound 1 µM, first compound 1 µM
[17] = second compound 1 µM, first compound 3.16 µM
[18] = second compound 1 µM, first compound 10 µM
[19] = second compound 3.16 µM, first compound 0.0316 µM
[20] = second compound 3.16 µM, first compound 0.1 µM
[21] = second compound 3.16 µM, first compound 0.316 µM
[22] = second compound 3.16 µM, first compound 1 µM
[23] = second compound 3.16 µM, first compound 3.16 µM
[24] = second compound 3.16 µM, first compound 10 µM
[25] = second compound 10 µM, first compound 0.0316 µM
[26] = second compound 10 µM, first compound 0.1 µM
[27] = second compound 10 µM, first compound 0.316 µM
[28] = second compound 10 µM, first compound 1 µM
[29] = second compound 10 µM, first compound 3.16 µM
[30] = second compound 10 µM, first compound 10 µM
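Further: spheroids exposed to compounds for seven days before readout.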

| SMILES | IC50 (second compound 0.1 µM) | IC50 (second compound 0.316 µM) | IC50 (second compound 1 µM) | IC50 (second compound 3.16 µM) | viability, T/C [1] | viability, T/C [2] | viability, T/C [3] | viability, T/C [4] | viability, T/C [5] | viability, T/C [6] | viability, T/C [7] | viability, T/C [8] | viability, T/C [9] | viability, T/C [10] | viability, T/C [11] | viability, T/C [12] | viability, T/C [13] | viability, T/C [14] | viability, T/C [15] | viability, T/C [16] | other results |
| --- | --- | --- | --- | --- | --- | --- | --- | --- | --- | --- | --- | --- | --- | --- | --- | --- | --- | --- | --- | --- | --- |
| COC(=O)c1ccc2c(C(=Nc3ccc(N(C)C(=O)CN4CCN(C)CC4)cc3)c3ccccc3)c(O)[nH]c2c1 + CC1OCC2(CCN(c3cnc(Sc4ccnc(N)c4Cl)c(N)n3)CC2)C1N | 1450 nM | 1460 nM | 1230 nM | 1060 nM | 100% | 104% | 82.3% | 68.1% | 12.1% | 15.3% | 102% | 93.3% | 92.5% | 68.7% | 7.79% | 14.9% | 82.6% | 114% | 71.5% | 63.6% | IC50 (second compound 10 µM): 600 nM; viability, T/C [17]: 12.2%; viability, T/C [18]: 12.3%; viability, T/C [19]: 79.2%; viability, T/C [20]: 101%; viability, T/C [21]: 75.3%; viability, T/C [22]: 54.3%; viability, T/C [23]: 14%; viability, T/C [24]: 11.5%; viability, T/C [25]: 81.2%; viability, T/C [26]: 75.4%; viability, T/C [27]: 61.5%; viability, T/C [28]: 42.2%; viability, T/C [29]: 14.8%; viability, T/C [30]: 7.52% |
| O=C(c1cc(Cc2n[nH]c(=O)c3ccccc23)ccc1F)N1CCN(C(=O)C2CC2)CC1 + CNCc1ccccc1-c1csc(C(C)Nc2nc(C)nc3cc(OC)c(OC)cc23)c1 | 4090 nM | 2900 nM | 2530 nM | < 31.6 nM | 101% | 99.5% | 83% | 71% | 58.1% | 31.4% | 107% | 101% | 78.5% | 69.7% | 48.4% | 29% | 99.5% | 77.8% | 75.3% | 69.6% | IC50 (second compound 10 µM): < 31.6 nM; viability, T/C [17]: 45.3%; viability, T/C [18]: 27.8%; viability, T/C [19]: 0.19%; viability, T/C [20]: 0.21%; viability, T/C [21]: 0.12%; viability, T/C [22]: 0.11%; viability, T/C [23]: 0.1%; viability, T/C [24]: 0.11%; viability, T/C [25]: 0.08%; viability, T/C [26]: 0.08%; viability, T/C [27]: 0.08%; viability, T/C [28]: 0.07%; viability, T/C [29]: 0.07%; viability, T/C [30]: 0.17% |
| CC1COCCN1c1cc(-c2ccnn2C)c2ccnc(-c3ccn[nH]3)c2n1 (stereo not given) | – | – | – | – | – | – | – | – | – | – | – | – | – | – | – | – | – | – | – | – | viability, T/C (compound 0.1 µM): 10.9% [middle of 5 runs]; viability, T/C (compound 0.316 µM): 6.73% [middle of 5 runs]; viability, T/C (compound 1 µM): 5.15% [middle of 5 runs]; viability, T/C (compound 3.16 µM): 4.48% [middle of 5 runs] |
| COc1cc(Nc2ncc3c(n2)-c2ccc(Cl)cc2C(c2c(F)cccc2OC)=NC3)ccc1C(=O)O + C=CC(=O)N1CCN(c2nc(=O)n(-c3c(C)ccnc3C(C)C)c3nc(-c4c(O)cccc4F)c(F)cc23)C(C)C1 | < 31.6 nM | < 31.6 nM | < 31.6 nM | < 31.6 nM | 29% | 18.9% | 20.6% | 42.2% | 61.3% | 39.2% | 45.5% | 34.7% | 50.7% | 59.3% | 42.7% | 37.5% | 14.8% | 32.8% | 54.8% | 69.5% | IC50 (second compound 10 µM): < 31.6 nM; viability, T/C [17]: 53.1%; viability, T/C [18]: 42.8%; viability, T/C [19]: 30.7%; viability, T/C [20]: 32%; viability, T/C [21]: 48.5%; viability, T/C [22]: 37.5%; viability, T/C [23]: 40.9%; viability, T/C [24]: 35.7%; viability, T/C [25]: 29.8%; viability, T/C [26]: 39.5%; viability, T/C [27]: 33.7%; viability, T/C [28]: 35.4%; viability, T/C [29]: 36.8%; viability, T/C [30]: 29.3% |
| CC1OCC2(CCN(c3cnc(Sc4ccnc(N)c4Cl)c(N)n3)CC2)C1N (stereo not given) + C=CC(=O)N1CCN(c2nc(OCC3CCCN3C)nc3c2CCN(c2cccc4cccc(C)c24)C3)CC1CC#N | > 10000 nM | > 10000 nM | 6510 nM | < 31.6 nM | 108% | 93.6% | 79.8% | 89.4% | 78% | 83.6% | 99% | 112% | 97.8% | 98.5% | 96.8% | 95.1% | 71% | 69.4% | 62.9% | 58.3% | IC50 (second compound 0.0316 µM): > 10000 nM; viability, T/C (second compound 0.0316 µM, first compound 0.0316 µM): 122%; viability, T/C (second compound 0.0316 µM, first compound 0.1 µM): 95.1%; viability, T/C (second compound 0.0316 µM, first compound 0.316 µM): 92.8%; viability, T/C (second compound 0.0316 µM, first compound 1 µM): 96.8%; viability, T/C (second compound 0.0316 µM, first compound 3.16 µM): 94.1%; viability, T/C (second compound 0.0316 µM, first compound 10 µM): 68.7%; viability, T/C [17]: 50.2%; viability, T/C [18]: 49.5%; viability, T/C [19]: 0.15%; viability, T/C [20]: 0.15%; viability, T/C [21]: 0.13%; viability, T/C [22]: 0.14%; viability, T/C [23]: 0.14%; viability, T/C [24]: 0.26% |
| CCN1CCN(Cc2ccc(Nc3ncc(F)c(-c4cc(F)c5nc(C)n(C(C)C)c5c4)n3)nc2)CC1 | – | – | – | – | – | – | – | – | – | – | – | – | – | – | – | – | – | – | – | – | viability, T/C (compound 0.00316 µM): 60.9% [middle of 5 runs]; viability, T/C (compound 0.01 µM): 35.7% [middle of 5 runs]; viability, T/C (compound 0.0316 µM): 19.6% [middle of 5 runs]; viability, T/C (compound 0.1 µM): 16.7% [middle of 5 runs]; viability, T/C (compound 0.316 µM): 14.5% [middle of 5 runs]; viability, T/C (compound 1 µM): 5.13% [middle of 5 runs] |
